We go through 24 compounds from PubChem BioAssay AID330 (DTP/NCI, 2004).

Several values for one entry are separate records, joined by “and”; a condition that tells them apart may be missing. Equal values may be shown once. Toxic doses and inconclusive results are not listed.

The test system of the test is P388 leukemia ip, CD2F1 mice, survival T/C. Briefly: NCI In Vivo Anticancer Drug Screen. Data for tumor model P388 Leukemia (intraperitoneal) in CD2F1 (CDF1) mice. The settings on record: endpoint: median survival time, higher = longer survival. The essentials: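 Mice carrying the transplanted tumor received test compound or vehicle. Survival was recorded in each group, and the value is the treated-group measurement divided by that of the vehicle-treated control group.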

Setting [1] is: dose: 60.0 mg/kg/injection, schedule: Q01DX005 (ip), vehicle: saline with Tween-80.
Where [2] appears, read: dose: 100.0 mg/kg/injection, schedule: Q01DX001 (ip), vehicle: saline.
Where [3] appears, read: dose: 200.0 mg/kg/injection, schedule: Q01DX001 (ip), vehicle: saline.
[4] abbreviates: dose: 400.0 mg/kg/injection, schedule: Q01DX001 (ip), vehicle: saline.
Setting [5] is: dose: 50.0 mg/kg/injection, schedule: Q01DX005 (ip), vehicle: saline.
[6] abbreviates: dose: 100.0 mg/kg/injection, schedule: Q01DX005 (ip), vehicle: saline.
Where [7] appears, read: dose: 50.0 mg/kg/injection, schedule: Q01DX009 (ip), vehicle: saline.
[8] abbreviates: dose: 200.0 mg/kg/injection, schedule: Q01DX005 (ip), vehicle: saline.
Setting [9] is: dose: 50.0 mg/kg/injection, schedule: Q01DX009 (ip), vehicle: saline with Tween-80.
Setting [10] is: dose: 100.0 mg/kg/injection, schedule: Q01DX009 (ip), vehicle: saline with Tween-80.
The mark [11] stands for this setting: dose: 200.0 mg/kg/injection, schedule: Q01DX009 (ip), vehicle: saline with Tween-80.
[12] abbreviates: dose: 100.0 mg/kg/injection, schedule: Q01DX009 (ip), vehicle: saline.
Setting [13] is: dose: 200.0 mg/kg/injection, schedule: Q01DX009 (ip), vehicle: saline.
The mark [14] stands for this setting: dose: 50.0 mg/kg/injection, schedule: Q04DX003 (ip), vehicle: saline.
Where [15] appears, read: dose: 100.0 mg/kg/injection, schedule: Q04DX003 (ip), vehicle: saline.
Where [16] appears, read: dose: 200.0 mg/kg/injection, schedule: Q04DX003 (ip), vehicle: saline.
The mark [17] stands for this setting: dose: 100.0 mg/kg/injection, schedule: Q04DX003 (ip), vehicle: saline with Tween-80.
Where [18] appears, read: dose: 200.0 mg/kg/injection, schedule: Q04DX003 (ip), vehicle: saline with Tween-80.
Setting [19] is: dose: 400.0 mg/kg/injection, schedule: Q04DX003 (ip), vehicle: saline with Tween-80.

Consider `COc1cc(N(CCCl)CCCl)c(OC)cc1/C=N\Nc1nncn1N`, for which the T/C (dose: 0.25 mg/kg/injection, schedule: Q01DX009 (ip), vehicle: saline) is 95 % of control; the T/C (dose: 0.5 mg/kg/injection, schedule: Q01DX009 (ip), vehicle: saline) is 104 % of control; the T/C (dose: 0.63 mg/kg/injection, schedule: Q04DX003 (ip), vehicle: saline) is 100 % of control; the T/C (dose: 1.25 mg/kg/injection, schedule: Q01DX009 (ip), vehicle: saline) was 154 % of control; the T/C (dose: 1.25 mg/kg/injection, schedule: Q04DX003 (ip), vehicle: saline) was 100 % of control; the T/C (dose: 2.5 mg/kg/injection, schedule: Q01DX009 (ip), vehicle: saline) was 154 % of control. Besides, the T/C runs as follows: (dose: 2.5 mg/kg/injection, schedule: Q04DX003 (ip), vehicle: saline) 107 % of control; (dose: 5.0 mg/kg/injection, schedule: Q01DX009 (ip), vehicle: saline) 186 % of control; (dose: 5.0 mg/kg/injection, schedule: Q04DX003 (ip), vehicle: saline) 123 % of control.
Turning to `O=C(O)Cc1c[nH]c2c(Cl)ccc(Cl)c12`, the T/C (dose: 100.0 mg/kg/injection, schedule: Q01DX001 (ip), vehicle: saline with Tween-80) is 101 % of control and the T/C (dose: 200.0 mg/kg/injection, schedule: Q01DX001 (ip), vehicle: saline with Tween-80) was 100 % of control.
For `CC(=O)OC12CCCCC1C1(CCCCC1)N=[N+]2[O-]` (centres undefined), the T/C (dose: 12.5 mg/kg/injection, schedule: Q01DX009 (ip), vehicle: other) was 105 % of control; the T/C (dose: 25.0 mg/kg/injection, schedule: Q01DX009 (ip), vehicle: other) is 115 % of control; the T/C (dose: 50.0 mg/kg/injection, schedule: Q01DX009 (ip), vehicle: other) was 100 % of control; the T/C (dose: 100.0 mg/kg/injection, schedule: Q01DX009 (ip), vehicle: other) was 99 % of control; the T/C (dose: 200.0 mg/kg/injection, schedule: Q01DX009 (ip), vehicle: other) was 112 % of control.
Take `CC(=O)C(C=O)C(C)=O.CC(=O)CC(C)=O.CC(=O)CC(C)=O.[Ru]`: the T/C is, setting by setting: (dose: 15.0 mg/kg/injection, schedule: Q01DX005 (ip), vehicle: saline with Tween-80) 100 % of control; (dose: 30.0 mg/kg/injection, schedule: Q01DX005 (ip), vehicle: saline with Tween-80) 102 % of control; under setting [1], 104 % of control and 109 % of control.
Regarding `O=P(O)(O)O`, the T/C is 97 % of control (dose: 60.0 mg/kg/injection, schedule: Q01DX005 (ip), vehicle: saline); 97 % of control (dose: 120.0 mg/kg/injection, schedule: Q01DX005 (ip), vehicle: saline); 90 % of control (dose: 240.0 mg/kg/injection, schedule: Q01DX005 (ip), vehicle: saline).
As for `O=P(O)(O)Oc1ccc(NCCO)cc1`, the T/C reads like this: (dose: 50.0 mg/kg/injection, schedule: Q01DX001 (ip), vehicle: saline) 107 % of control; under setting [2], 99 % of control; under setting [3], 100 % of control; under setting [4], 100 % of control.
In the case of `CN=c1ccc2cc3ccc(NC)cc3oc-2c1`, the T/C runs as follows: under setting [5], 92 % of control; under setting [6], 89 % of control.
As to `COc1ccc(Oc2cc3c(cc2OC)CCN(C)C3)cc1`, the T/C was 108 % of control (dose: 12.5 mg/kg/injection, schedule: Q01DX009 (ip), vehicle: saline); 104 % of control (dose: 25.0 mg/kg/injection, schedule: Q01DX009 (ip), vehicle: saline); 99 % of control and 107 % of control under setting [7].
`CCN(CC)CCCNc1nccc2ccc(OC)cc12`: the T/C under setting [5] is 99 % of control, the T/C under setting [6] is 99 % of control and the T/C under setting [8] was 97 % of control.
As to `NC(=O)C[CH2][Sn]([Cl])([Cl])[CH2]CC(N)=O`, the T/C was 98 % of control under setting [5], 98 % of control under setting [6] and 105 % of control under setting [8].
As to `O=C1CSC(=S)N1Cc1ccncc1`, the T/C is 97 % of control under setting [9], 98 % of control under setting [10] and 101 % of control under setting [11].
As for `CN(C)CCC(=O)c1ccc(O)cc1`, the T/C under setting [7] was 98 % of control, the T/C under setting [12] is 105 % of control and the T/C under setting [13] is 106 % of control.
As for `N=C1/C(=C\c2ccccc2O)C(=O)NN1C(=O)c1ccncc1`, the T/C runs as follows: under setting [2], 103 % of control; under setting [3], 98 % of control; under setting [4], 104 % of control.
`COC(=O)c1ccccc1NC(=O)N1CC1`: the T/C (dose: 50.0 mg/kg/injection, schedule: Q01DX005 (ip), vehicle: DMSO) was 105 % of control and the T/C (dose: 100.0 mg/kg/injection, schedule: Q01DX005 (ip), vehicle: DMSO) is 118 % of control.
Regarding `CCOC(=O)Cc1nnc(N)s1`, the T/C was 94 % of control under setting [14]; 95 % of control under setting [15]; 110 % of control under setting [16]; 104 % of control (dose: 400.0 mg/kg/injection, schedule: Q04DX003 (ip), vehicle: saline).
`Cc1cc2c(C#N)c3ccccc3c(=O)n2c2ccccc12`: the T/C is, setting by setting: (dose: 50.0 mg/kg/injection, schedule: Q01DX005 (ip), vehicle: Klucel (hydroxypropylcellulose) (HPC)) 98 % of control; (dose: 100.0 mg/kg/injection, schedule: Q01DX005 (ip), vehicle: Klucel (hydroxypropylcellulose) (HPC)) 96 % of control; (dose: 200.0 mg/kg/injection, schedule: Q01DX005 (ip), vehicle: Klucel (hydroxypropylcellulose) (HPC)) 100 % of control.
As to `CC(/C=C/c1ccccc1)=N\NC(=O)c1ccccc1O`, the T/C by setting is: (dose: 60.0 mg/kg/injection, schedule: Q01DX005 (ip), vehicle: Klucel (hydroxypropylcellulose) (HPC)) 93 % of control; (dose: 120.0 mg/kg/injection, schedule: Q01DX005 (ip), vehicle: Klucel (hydroxypropylcellulose) (HPC)) 95 % of control; (dose: 240.0 mg/kg/injection, schedule: Q01DX005 (ip), vehicle: Klucel (hydroxypropylcellulose) (HPC)) 89 % of control.
As for `COCC1(C)CCCC2(C)C3=CC(=O)CCC3CCC12` (centres undefined), the T/C is 100 % of control under setting [17], 108 % of control under setting [18] and 95 % of control under setting [19].
For `O=c1ccn2ccccc2n1`, the T/C under setting [7] was 95 % of control; the T/C under setting [14] was 91 % of control; the T/C under setting [12] was 86 % of control; the T/C under setting [15] is 100 % of control; the T/C under setting [13] was 95 % of control; the T/C under setting [16] is 91 % of control.
In the case of `CCOC1OCN(Cc2ccccc2)CC1(C)C` (centres undefined), the T/C under setting [9] was 114 % of control, the T/C under setting [10] was 115 % of control and the T/C under setting [11] was 117 % of control.
Consider `Cc1cc(N)ccc1Cl`, for which the T/C (dose: 25.0 mg/kg/injection, schedule: Q01DX009 (ip), vehicle: saline with Tween-80) was 97 % of control; the T/C under setting [9] is 110 % of control; the T/C under setting [10] is 93 % of control; the T/C under setting [11] was 96 % of control.
Consider `O=C(c1ccc([N+](=O)[O-])cc1)c1cc2ccccc2oc1=O`, for which the T/C under setting [1] is 91 % of control; the T/C (dose: 120.0 mg/kg/injection, schedule: Q01DX005 (ip), vehicle: saline with Tween-80) was 94 % of control; the T/C (dose: 240.0 mg/kg/injection, schedule: Q01DX005 (ip), vehicle: saline with Tween-80) was 90 % of control.
Regarding `Nc1ccnc(N)c1N=O`, the T/C under setting [17] was 103 % of control, the T/C under setting [18] was 99 % of control and the T/C under setting [19] is 97 % of control.
On to `COc1c2c(cc3oc(=O)ccc13)OC(C)(C)C=C2`, for which the T/C (dose: 12.0 mg/kg/injection, schedule: Q01DX005 (ip), vehicle: saline with Tween-80) was 107 % of control; the T/C (dose: 24.0 mg/kg/injection, schedule: Q01DX005 (ip), vehicle: saline with Tween-80) is 98 % of control; the T/C (dose: 48.0 mg/kg/injection, schedule: Q01DX005 (ip), vehicle: saline with Tween-80) is 105 % of control; the T/C (dose: 96.0 mg/kg/injection, schedule: Q01DX005 (ip), vehicle: saline with Tween-80) is 100 % of control.
